Test results published in ChEMBL document CHEMBL1141947, “Inhibitors of the serotonin transporter protein (SERT): the design and synthesis of biotinylated derivatives of 3-(1,2,3,6-tetrahydro-pyridin-4-yl)-1H-indoles. High-affinity serotonergic ligands for conjugation with quantum dots” (Bioorg Med Chem Lett, 2005).

Legend:
[1] = target: T1, Sodium-dependent serotonin transporter (Homo sapiens, UniProt P31645); assay: Inhibitory activity against human SERT transfected in HEK293 cells; format: cell-based
[2] = target: T1, Sodium-dependent serotonin transporter; assay: Inhibitory activity of compound bound to streptavidin-conjugated quantum dots against human SERT transfected in HEK293 cells; format: cell-based

T1 sequence (P31645 whole entry): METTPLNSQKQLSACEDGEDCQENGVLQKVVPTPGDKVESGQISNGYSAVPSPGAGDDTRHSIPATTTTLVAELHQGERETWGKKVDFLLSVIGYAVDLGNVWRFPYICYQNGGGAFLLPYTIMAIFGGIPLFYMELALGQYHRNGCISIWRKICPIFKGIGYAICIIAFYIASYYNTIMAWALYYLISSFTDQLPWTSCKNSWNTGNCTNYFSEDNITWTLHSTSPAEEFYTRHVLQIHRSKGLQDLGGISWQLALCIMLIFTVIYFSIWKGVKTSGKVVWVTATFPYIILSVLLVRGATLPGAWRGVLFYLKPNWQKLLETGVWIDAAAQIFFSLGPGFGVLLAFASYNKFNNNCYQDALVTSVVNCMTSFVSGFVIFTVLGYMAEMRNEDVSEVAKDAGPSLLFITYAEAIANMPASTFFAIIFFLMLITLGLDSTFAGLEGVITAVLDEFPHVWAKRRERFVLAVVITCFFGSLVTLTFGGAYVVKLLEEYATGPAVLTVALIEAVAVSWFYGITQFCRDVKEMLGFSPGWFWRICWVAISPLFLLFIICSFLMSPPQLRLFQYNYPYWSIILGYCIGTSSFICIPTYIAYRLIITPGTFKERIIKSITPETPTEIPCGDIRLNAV

| Compound | IC50 [1] [µM] | IC50 [2] [µM] |
| --- | --- | --- |
| O=C(CCCCC1SCC2NC(=O)NC21)NCCN1CC=C(c2c[nH]c3ccccc23)CC1 (centres undefined) | 0.002 | 0.03 |
| NCCc1c[nH]c2ccc(OCCOCCOCCS)cc12 | 115 | 99 |
